IC50 and viability data for 5 molecules are collected here from ChEMBL document CHEMBL3616413, “Isolation and structure of vanitaracin A, a novel anti-hepatitis B virus compound from Talaromyces sp” (Bioorg Med Chem Lett, 2015).

One may read the IC50 as the concentration that gives 50% inhibition.

One data set concerns Hepatitis B virus. Briefly: Antiviral activity against HBV infected in human HepG2 cells expressing hNTCP-C4 assessed as viral envelope surface protein secretion treated for 16 hrs followed by compound washout measured after 12 days by ELISA. It counts as functional, organism-based. Background: In an ELISA, binding on a coated surface is turned into a signal by an enzyme label.

The nature of data set [1]: Cytotoxicity against human HepG2 cells expressing hNTCP-C4 assessed as cell viability by MTT assay. On the set-up: concentration or dose not given beside the values. It counts as cell-based. The conditions noted are these: read-out: Activity.

`CCC(C)CC(C)C(=O)OC1(C)C(=O)c2c(cc(O)c3c2C[C@@H](O)C[C@H]3C)C(C)(O)C1=O` (stereo not given in full): the IC50 in the data set with Hepatitis B virus was 10.5 µM. The viability in data set [1] was more than 90%.

On to `CCC(C)CC(C)C(=O)OC1(C)C(=O)Cc2cc(O)c3c(c2C1=O)C[C@@H](O)C[C@H]3C` (stereo not given in full), for which the IC50 in the data set with Hepatitis B virus was 91.2 µM. In data set [1], the viability is more than 90%.

Take `Cc1cccc(O)c1C(=O)Cc1c(C=O)cc(O)c(C)c1O`: the half-inhibitory concentration (IC50) in the data set on Hepatitis B virus was 51.4 µM. Besides, the viability in data set [1] was more than 90%.

`CCC(=O)Cc1cc(=O)c2c(C)cc(O)cc2o1`: the IC50 with Hepatitis B virus turned out to be 72.4 µM. Further, in data set [1], the viability is more than 90%.

With `CCC(=O)CC1(O)CC(=O)c2c(C)cc(O)cc2O1` (stereo not given), the IC50 in the data set with Hepatitis B virus turned out to be 52.1 µM. Further, the viability in data set [1] was more than 90%.
